# Columns and labels:
# Assay type in all cases: in vivo
# [1] = test system: Viola tricolor; assay: Post-emergence herbicidal action against VIOTR
# How it was run: (§1)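 Herbicidal action is a visual percentage rating (0% = as untreated control, 100% = plants dead) made roughly 3 weeks after treatment. Plants were grown in sandy loam in the greenhouse and treated at the one-leaf stage, 2 to 3 weeks post-sowing. Treatment was a foliar spray of wettable-powder or emulsion-concentrate formulations at 600 to 800 l/ha water plus 0.2% wetting agent.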
# [2] = test system: Alopecurus myosuroides; assay: Pre-emergence herbicidal action against ALOMY; settings: for Pre-emergence action against ALOMY: visual score after 3 weeks vs untreated controls; for Herbicidal action against ALOMY: comparative experiment, pre-emergence
# How it was run: (§2)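 Sandy loam pots, seeds covered with soil, then surface-treated with WP or EC formulations at 600–800 l/ha water plus 0.2% wetting agent. Greenhouse, 3 weeks. Percent damage vs untreated controls.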
# [3] = test system: Abutilon theophrasti; assay: Pre-emergence herbicidal action against ABUTH; settings: for Pre-emergence action against ABUTH: visual score after 3 weeks vs untreated controls; for Herbicidal action against ABUTH: comparative experiment, pre-emergence
# How it was run: as §2
# [4] = test system: Polygonum convolvulus; assay: Pre-emergence herbicidal action against POLCO; settings: 80 g/ha
# How it was run: as §2
# [5] = test system: Digitaria sanguinalis; assay: Pre-emergence herbicidal action against DIGSA
# How it was run: as §2
# [6] = test system: Echinochloa crus-galli; assay: Post-emergence herbicidal action against ECHCG; settings: visual assessment about 3 weeks after treatment
# How it was run: as §1
# [7] = test system: Veronica persica; assay: Pre-emergence herbicidal action against VERPE; settings: 80 g/ha
# How it was run: as §2
# [8] = test system: Viola tricolor; assay: Pre-emergence herbicidal action against VIOTR; settings: for Pre-emergence action against VIOTR: 80 g/ha
# How it was run: as §2
# [9] = test system: Avena fatua; assay: Pre-emergence herbicidal action against AVEFA; settings: for Pre-emergence action against AVEFA: visual score after 3 weeks vs untreated controls; for Herbicidal action against AVEFA: comparative experiment, pre-emergence
# How it was run: as §2
# [10] = test system: Abutilon theophrasti; assay: Post-emergence herbicidal action against ABUTH
# How it was run: as §1
# [11] = test system: Digitaria sanguinalis; assay: Post-emergence herbicidal action against DIGSA
# How it was run: as §1
# [12] = test system: Lolium rigidum; assay: Pre-emergence herbicidal action against LOLRI; settings: 80 g/ha
# From the text: (§3) Seeds of monocotyledonous and dicotyledonous weed plants and crop plants are laid out in sandy loam soil in wood-fiber pots and covered with soil. The compounds of the invention, formulated in the form of wettable powders (WP) or as emulsion concentrates (EC), are then applied to the surface of the covering soil in the form of an aqueous suspension or emulsion at a water application rate equivalent to 600 to 800 l/ha, with addition of 0.2% wetting agent. After the treatment, the pots are placed in a greenhouse and kept under good growth conditions for the trial plants. The damage to the test plants is scored visually after a test period of 3 weeks by comparison with untreated controls (herbicidal activity in percent (%): 100% activity=the plants have died, 0% activity=like control plants). […] The tables below illustrate, in an illustrative manner, the post-emergence herbicidal action of the compounds of the invention, the herbicidal activity being stated in percent.
# [13] = test system: Alopecurus myosuroides; assay: Post-emergence herbicidal action against ALOMY
# How it was run: as §1
# [14] = test system: Amaranthus retroflexus; assay: Pre-emergence herbicidal action against AMARE; settings: visual score after 3 weeks vs untreated controls
# How it was run: as §2
# [15] = test system: Amaranthus retroflexus; assay: Post-emergence herbicidal action against AMARE; settings: visual assessment about 3 weeks after treatment
# How it was run: as §1
# [16] = test system: Matricaria inodora; assay: Post-emergence herbicidal action against MATIN; settings: for Post-emergence action against MATIN in %: visual assessment about 3 weeks after treatment
# How it was run: as §1
# [17] = test system: Setaria viridis; assay: Post-emergence herbicidal action against SETVI; settings: for Post-emergence action against SETVI in %: visual assessment about 3 weeks after treatment
# How it was run: as §1
# [18] = test system: Matricaria inodora; assay: Pre-emergence herbicidal action against MATIN; settings: visual score after 3 weeks vs untreated controls
# How it was run: as §2
# [19] = test system: Pharbitis purpurea; assay: Post-emergence herbicidal action against PHBPU; settings: for Post-emergence action against PHBPU in %: visual assessment about 3 weeks after treatment
# How it was run: as §1
# [20] = test system: Echinochloa crus-galli; assay: Pre-emergence herbicidal action against ECHCG; settings: for Herbicidal action against ECHCG: comparative experiment, pre-emergence
# How it was run: as §2
# [21] = test system: Setaria viridis; assay: Pre-emergence herbicidal action against SETVI; settings: for Pre-emergence action against SETVI: 80 g/ha; for Herbicidal action against SETVI: comparative experiment
# How it was run: as §2
# [22] = test system: Pharbitis purpurea; assay: Pre-emergence herbicidal action against PHBPU; settings: 80 g/ha; visual score after 3 weeks vs untreated controls
# From the text: as §3
# [23] = test system: Veronica persica; assay: Post-emergence herbicidal action against VERPE; settings: 20 g/ha, visual assessment about 3 weeks after treatment
# How it was run: as §1
# [24] = comparative experiment, 5 g a.i./ha
smiles,measurement,setting,value
CN(C)C(=O)c1c(C(F)F)ccc(C(=O)Nc2nnnn2C)c1Cl [Example 1-154],Post-emergence action against VIOTR in %,[1]; 5 g/ha,100%
same,Post-emergence action against VIOTR in %,[1]; 20 g/ha,100%
same,Herbicidal action against VIOTR,[1]; [24],100
same,Pre-emergence action against ALOMY,[2]; 20 g/ha,90%
same,Pre-emergence action against ALOMY,[2]; 80 g/ha,100%
same,Herbicidal action against ALOMY,[2]; 20 g a.i./ha,70
same,Herbicidal action against ALOMY,[2]; 80 g a.i./ha,100
same,Pre-emergence action against ABUTH,[3]; 80 g/ha,100%
same,Herbicidal action against ABUTH,[3]; 20 g a.i./ha,100
same,Herbicidal action against ABUTH,[3]; 80 g a.i./ha,100
same,Pre-emergence action against POLCO,[4],80%
same,Pre-emergence action against DIGSA,[5]; 20 g/ha,100%
same,Pre-emergence action against DIGSA,[5]; 80 g/ha,100%
same,Post-emergence action against ECHCG in %,[6]; 5 g/ha,90%
same,Post-emergence action against ECHCG in %,[6]; 20 g/ha,90%
same,Pre-emergence action against VERPE,[7],80%
same,Pre-emergence action against VIOTR,[8],100%
same,Herbicidal action against VIOTR,"[8]; comparative experiment, 80 g a.i./ha",100
same,Pre-emergence action against AVEFA,[9]; 20 g/ha,80%
same,Pre-emergence action against AVEFA,[9]; 80 g/ha,100%
same,Herbicidal action against AVEFA,[9]; 20 g a.i./ha,50
same,Herbicidal action against AVEFA,[9]; 80 g a.i./ha,100
same,Post-emergence action against ABUTH,[10]; 5 g/ha,100%
same,Post-emergence action against ABUTH,[10]; 20 g/ha,100%
same,Herbicidal action against ABUTH,[10]; [24],100
same,Post-emergence action against DIGSA in %,[11]; 5 g/ha,90%
same,Post-emergence action against DIGSA in %,[11]; 20 g/ha,90%
same,Pre-emergence action against LOLRI,[12],90%
same,Post-emergence action against ALOMY,[13]; 5 g/ha,90%
same,Post-emergence action against ALOMY,[13]; 20 g/ha,100%
same,Herbicidal action against ALOMY,[13]; [24],90
same,Pre-emergence action against AMARE,[14]; 20 g/ha,90%
same,Pre-emergence action against AMARE,[14]; 80 g/ha,100%
same,Post-emergence action against AMARE in %,[15]; 5 g/ha,90%
same,Post-emergence action against AMARE in %,[15]; 20 g/ha,100%
same,Post-emergence action against MATIN in %,[16]; 5 g/ha,80%
same,Post-emergence action against MATIN in %,[16]; 20 g/ha,90%
same,Herbicidal action against MATIN,[16]; [24],80
same,Post-emergence action against SETVI in %,[17]; 5 g/ha,100%
same,Post-emergence action against SETVI in %,[17]; 20 g/ha,100%
same,Herbicidal action against SETVI,[17]; [24],100
same,Pre-emergence action against MATIN,[18]; 20 g/ha,80%
same,Pre-emergence action against MATIN,[18]; 80 g/ha,90%
same,Post-emergence action against PHBPU in %,[19]; 5 g/ha,80%
same,Post-emergence action against PHBPU in %,[19]; 20 g/ha,90%
same,Herbicidal action against PHBPU,[19]; [24],80
same,Pre-emergence action against ECHCG,"[20]; 80 g/ha, visual score after 3 weeks vs untreated controls",100%
same,Herbicidal action against ECHCG,[20]; 20 g a.i./ha,80
same,Herbicidal action against ECHCG,[20]; 80 g a.i./ha,100
same,Pre-emergence action against SETVI,[21],100%
same,Herbicidal action against SETVI,[21]; 20 g a.i./ha,90
same,Herbicidal action against SETVI,[21]; 80 g a.i./ha,100
CCN(CC)C(=O)c1c(Br)ccc(C(=O)Nc2nnnn2C)c1Cl [Example 1-200],Post-emergence action against VIOTR in %,[1]; 5 g/ha,80%
same,Post-emergence action against VIOTR in %,[1]; 20 g/ha,80%
same,Pre-emergence action against ALOMY,[2]; 80 g/ha,100%
same,Pre-emergence action against PHBPU,[22],80%
same,Pre-emergence action against ABUTH,[3]; 20 g/ha,90%
same,Pre-emergence action against ABUTH,[3]; 80 g/ha,100%
same,Post-emergence action against ECHCG in %,[6]; 20 g/ha,100%
same,Pre-emergence action against VERPE,[7],100%
same,Pre-emergence action against VIOTR,[8],100%
same,Post-emergence action against VERPE in %,[23],90%
same,Post-emergence action against ABUTH,[10]; 5 g/ha,80%
same,Post-emergence action against ABUTH,[10]; 20 g/ha,90%
same,Pre-emergence action against AMARE,[14]; 20 g/ha,90%
same,Pre-emergence action against AMARE,[14]; 80 g/ha,100%
same,Post-emergence action against AMARE in %,[15]; 5 g/ha,100%
same,Post-emergence action against AMARE in %,[15]; 20 g/ha,100%
same,Post-emergence action against SETVI in %,[17]; 5 g/ha,80%
same,Post-emergence action against SETVI in %,[17]; 20 g/ha,90%
same,Pre-emergence action against MATIN,[18]; 80 g/ha,100%
same,Post-emergence action against PHBPU in %,[19]; 20 g/ha,90%
same,Pre-emergence action against SETVI,[21],100%
